Measured values from patent US9907859B2 (priority 2010, dated 2018).
Converted amounts (≈) assume the structure as drawn.

Experiments:
[1] = tested on: ectromelia virus (ECTV); details: read-out: 50% effective concentration [EC50], inhibition of virus replication; cited from earlier work
[2] = physchem; details: 37 °C, aqueous with cosolvent or surfactant or cyclodextrin, range of ST-246 solubilized by cyclodextrin

In the case of `O=C(NN1C(=O)C2C3C=CC(C4CC34)C2C1=O)c1ccc(C(F)(F)F)cc1` (centres unmarked) [ST-246, 4-trifluoromethyl-N-(3,3a,4,4a,5,5a,6,6a-octahydro-1,3-dioxo-4,6-ethenocycloprop[f]isoindol-2(1H)-yl)-benzamide], the EC50 [1] is listed as no more than 70 nM and the solubility [2] is listed as 1500 to 11000 µg/mL (≈ 3.99 to 29.2 mM).
